According to ChEMBL document CHEMBL1139722, “N',2-diphenylquinoline-4-carbohydrazide based NK3 receptor antagonists” (Bioorg Med Chem Lett, 2006):
Activity calls are given as the source filed them.

Key:
Neuromedin-K receptor [1] = target: T1, Neuromedin-K receptor (Homo sapiens, UniProt P29371); assay: Displacement of [125I]neurokinin B from cloned human NK3 receptor expressed in CHO cells; assay type: cell-based
T1 sequence (P29371 whole entry): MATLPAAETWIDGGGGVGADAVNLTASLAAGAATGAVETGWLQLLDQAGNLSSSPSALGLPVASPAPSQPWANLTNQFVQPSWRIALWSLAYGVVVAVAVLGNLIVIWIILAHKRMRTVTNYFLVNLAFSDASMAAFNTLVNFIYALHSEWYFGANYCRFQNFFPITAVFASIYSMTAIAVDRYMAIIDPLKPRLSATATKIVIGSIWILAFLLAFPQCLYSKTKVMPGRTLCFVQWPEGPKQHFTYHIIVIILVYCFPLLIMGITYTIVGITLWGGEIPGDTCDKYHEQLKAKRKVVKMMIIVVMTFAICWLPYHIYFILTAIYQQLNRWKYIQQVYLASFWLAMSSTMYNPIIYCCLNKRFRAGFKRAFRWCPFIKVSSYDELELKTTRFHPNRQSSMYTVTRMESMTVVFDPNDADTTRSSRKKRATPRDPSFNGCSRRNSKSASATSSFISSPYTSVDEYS

PXR (NR1I2) = target: T2, PXR (NR1I2) (Homo sapiens, UniProt O75469); assay: Increase in human PXR activation expressed in CHO cells relative to rifampicin; assay type: cell-based; settings: CHO cells expressing human PXR, read-out: Activity
T2 sequence (O75469 whole entry): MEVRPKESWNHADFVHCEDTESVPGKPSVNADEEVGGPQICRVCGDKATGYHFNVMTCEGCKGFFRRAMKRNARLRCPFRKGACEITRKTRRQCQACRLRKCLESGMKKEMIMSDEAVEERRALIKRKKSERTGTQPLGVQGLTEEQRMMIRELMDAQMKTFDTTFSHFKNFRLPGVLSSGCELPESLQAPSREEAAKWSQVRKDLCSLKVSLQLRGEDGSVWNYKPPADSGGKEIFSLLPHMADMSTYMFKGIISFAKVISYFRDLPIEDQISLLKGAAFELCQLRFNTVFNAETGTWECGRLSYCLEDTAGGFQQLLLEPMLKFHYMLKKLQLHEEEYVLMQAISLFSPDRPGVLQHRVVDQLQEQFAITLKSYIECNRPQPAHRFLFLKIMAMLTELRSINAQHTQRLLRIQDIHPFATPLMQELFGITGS

Gerbil, jird [2] = assay: Plasma concentration in gerbil at 75 mg/kg, po; assay type: ADME, organism-based; design: dose 75 mg/kg, route oral; settings: meriones, in vivo
[3] = target: T3, Neuromedin-K receptor (Homo sapiens) (UniProt P29371); assay: Displacement of [125I]neurokinin B from cloned human NK3 receptor expressed in CHO cells at 1 uM; assay type: cell-based; settings: filed as antagonist
T3 sequence (whole entry): T1 sequence (P29371 whole entry)

[4] = Metabolic stability in rat liver microsomes after 15 mins; assay type: ADME, Microsome; settings: read-out: Stability
Gerbil, jird [5] = assay: Plasma concentration in gerbil at 10 mg/kg, po; assay type: ADME, organism-based; design: dose 10 mg/kg, route oral; settings: meriones, in vivo
Cytochrome P450 2C9 = Cytochrome P450 2C9 (Homo sapiens, UniProt P11712); assay: Inhibition of CYP2C9 in human liver microsomes; assay type: ADME, Microsome
Sequence of Cytochrome P450 2C9 (P11712 whole entry): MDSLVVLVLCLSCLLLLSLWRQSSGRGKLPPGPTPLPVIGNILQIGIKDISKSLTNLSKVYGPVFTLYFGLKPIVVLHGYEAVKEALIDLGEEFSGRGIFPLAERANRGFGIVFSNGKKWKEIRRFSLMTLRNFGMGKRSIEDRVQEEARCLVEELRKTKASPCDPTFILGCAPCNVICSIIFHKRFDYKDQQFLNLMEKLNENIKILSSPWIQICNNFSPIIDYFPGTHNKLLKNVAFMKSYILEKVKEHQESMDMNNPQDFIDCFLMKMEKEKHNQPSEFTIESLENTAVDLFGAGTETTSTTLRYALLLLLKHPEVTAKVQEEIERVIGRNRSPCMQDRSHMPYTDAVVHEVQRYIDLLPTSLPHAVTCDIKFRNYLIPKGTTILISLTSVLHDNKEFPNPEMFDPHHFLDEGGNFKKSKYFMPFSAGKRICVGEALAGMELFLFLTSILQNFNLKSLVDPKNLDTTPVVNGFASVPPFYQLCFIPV

[6] = Oral bioavailability in rat; assay type: ADME, organism-based; settings: in vivo
[7] = target: T3, Neuromedin-K receptor (Homo sapiens); assay: Activity at human NK3 receptor assessed as inhibition of eledoisin-induced inositol phosphate generation in CHO cells; assay type: functional, cell-based
[8] = Half life in rat; assay type: ADME, organism-based; settings: in vivo
[9] = Oral bioavailability in dog; assay type: ADME, organism-based, Canis lupus familiaris; settings: in vivo
[10] = Half life in dog; assay type: ADME, organism-based, Canis lupus familiaris; settings: in vivo
[11] = target: T3, Neuromedin-K receptor (Homo sapiens); assay: Activity at human NK3 receptor assessed as stimulation of calcium mobilization in CHO cells up to 10 uM; assay type: functional, cell-based
Substance-P receptor = Substance-P receptor (Homo sapiens, UniProt P25103); assay: Inhibition of human NK1 receptor
Sequence of Substance-P receptor (P25103 whole entry): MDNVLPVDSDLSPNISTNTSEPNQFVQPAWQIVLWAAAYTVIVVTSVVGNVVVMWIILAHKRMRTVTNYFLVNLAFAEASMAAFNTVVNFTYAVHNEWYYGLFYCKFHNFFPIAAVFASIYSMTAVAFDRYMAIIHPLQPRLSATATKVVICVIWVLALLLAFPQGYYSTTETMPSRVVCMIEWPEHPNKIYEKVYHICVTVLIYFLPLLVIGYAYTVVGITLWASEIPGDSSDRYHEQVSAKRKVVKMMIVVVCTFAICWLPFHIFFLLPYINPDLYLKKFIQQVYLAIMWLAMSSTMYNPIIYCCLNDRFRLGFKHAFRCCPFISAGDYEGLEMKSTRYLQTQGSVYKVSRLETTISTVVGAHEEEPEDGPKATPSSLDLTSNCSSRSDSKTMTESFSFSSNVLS

Cytochrome P450 3A4 = Cytochrome P450 3A4 (Homo sapiens, UniProt P08684); assay: Inhibition of CYP3A4 in human liver microsomes; assay type: ADME, Microsome
Sequence of Cytochrome P450 3A4 (P08684 whole entry): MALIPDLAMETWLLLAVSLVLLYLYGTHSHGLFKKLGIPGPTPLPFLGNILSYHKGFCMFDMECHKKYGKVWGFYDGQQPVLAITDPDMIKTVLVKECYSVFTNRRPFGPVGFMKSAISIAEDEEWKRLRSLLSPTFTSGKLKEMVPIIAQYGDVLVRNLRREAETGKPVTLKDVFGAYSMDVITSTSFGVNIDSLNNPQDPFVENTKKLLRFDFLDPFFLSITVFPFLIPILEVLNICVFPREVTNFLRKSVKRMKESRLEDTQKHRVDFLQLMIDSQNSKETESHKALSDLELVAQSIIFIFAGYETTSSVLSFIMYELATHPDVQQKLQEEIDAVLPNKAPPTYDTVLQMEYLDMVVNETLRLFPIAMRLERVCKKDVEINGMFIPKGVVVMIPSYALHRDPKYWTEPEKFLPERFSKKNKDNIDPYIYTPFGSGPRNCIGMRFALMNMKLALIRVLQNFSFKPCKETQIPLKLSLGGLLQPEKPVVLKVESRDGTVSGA

Escherichia coli [12] = assay: Effect on Escherichia coli mutation in absence of liver microsomal enzymes by Ames assay; assay type: functional, organism-based
Substance-K receptor = target: T4, Substance-K receptor (Homo sapiens, UniProt P21452); assay: Inhibition of human NK2 receptor
T4 sequence (P21452 whole entry): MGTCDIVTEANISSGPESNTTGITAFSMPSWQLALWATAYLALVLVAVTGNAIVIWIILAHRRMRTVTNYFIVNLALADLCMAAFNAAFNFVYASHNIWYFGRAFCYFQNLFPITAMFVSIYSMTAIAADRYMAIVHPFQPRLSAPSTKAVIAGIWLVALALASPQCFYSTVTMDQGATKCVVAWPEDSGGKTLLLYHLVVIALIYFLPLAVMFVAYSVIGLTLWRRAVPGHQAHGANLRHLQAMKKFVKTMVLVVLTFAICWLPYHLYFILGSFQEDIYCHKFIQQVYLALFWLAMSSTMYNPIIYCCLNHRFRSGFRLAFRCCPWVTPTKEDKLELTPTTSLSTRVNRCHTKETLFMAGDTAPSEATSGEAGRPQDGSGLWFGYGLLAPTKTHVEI

[13] = target: T3, Neuromedin-K receptor (Homo sapiens); assay: Activity at human NK3 receptor assessed as stimulation of inositol phosphate generation in CHO cells up to 10 uM; assay type: functional, cell-based
Salmonella typhimurium [14] = assay: Effect on Salmonella Typhimurium mutation in absence of liver microsomal enzymes by Ames assay; assay type: functional, organism-based; settings: Salmonella enterica subsp. enterica serovar Typhimurium
Neuromedin-K receptor [15] = target: T5, Neuromedin-K receptor (Rattus norvegicus, UniProt P16177); assay: Binding affinity to rat NK3 receptor
T5 sequence (P16177 whole entry): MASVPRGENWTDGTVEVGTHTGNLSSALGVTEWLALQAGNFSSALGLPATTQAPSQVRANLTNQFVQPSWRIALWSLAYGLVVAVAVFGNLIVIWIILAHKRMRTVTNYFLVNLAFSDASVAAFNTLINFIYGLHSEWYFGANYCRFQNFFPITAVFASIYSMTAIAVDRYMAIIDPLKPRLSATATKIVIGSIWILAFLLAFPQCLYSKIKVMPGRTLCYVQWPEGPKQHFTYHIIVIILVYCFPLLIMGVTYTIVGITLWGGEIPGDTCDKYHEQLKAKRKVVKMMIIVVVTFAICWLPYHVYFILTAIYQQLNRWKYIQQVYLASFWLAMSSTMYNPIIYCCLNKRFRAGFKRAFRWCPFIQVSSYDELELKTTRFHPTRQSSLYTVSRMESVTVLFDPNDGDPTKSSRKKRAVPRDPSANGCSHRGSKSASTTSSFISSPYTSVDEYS

Hepatocyte = assay: Induction of CYP3A4 in human hepatocytes at 20 uM relative to rifampicin; assay type: functional, cell-based
Gerbil, jird [16] = assay: Plasma concentration in gerbil at 30 mg/kg, po; assay type: ADME, organism-based; design: dose 30 mg/kg, route oral; settings: meriones, in vivo
Cytochrome P450 2D6 = Cytochrome P450 2D6 (Homo sapiens, UniProt P10635); assay: Inhibition of CYP2D6 in human liver microsomes; assay type: ADME, Microsome
Sequence of Cytochrome P450 2D6 (P10635 whole entry): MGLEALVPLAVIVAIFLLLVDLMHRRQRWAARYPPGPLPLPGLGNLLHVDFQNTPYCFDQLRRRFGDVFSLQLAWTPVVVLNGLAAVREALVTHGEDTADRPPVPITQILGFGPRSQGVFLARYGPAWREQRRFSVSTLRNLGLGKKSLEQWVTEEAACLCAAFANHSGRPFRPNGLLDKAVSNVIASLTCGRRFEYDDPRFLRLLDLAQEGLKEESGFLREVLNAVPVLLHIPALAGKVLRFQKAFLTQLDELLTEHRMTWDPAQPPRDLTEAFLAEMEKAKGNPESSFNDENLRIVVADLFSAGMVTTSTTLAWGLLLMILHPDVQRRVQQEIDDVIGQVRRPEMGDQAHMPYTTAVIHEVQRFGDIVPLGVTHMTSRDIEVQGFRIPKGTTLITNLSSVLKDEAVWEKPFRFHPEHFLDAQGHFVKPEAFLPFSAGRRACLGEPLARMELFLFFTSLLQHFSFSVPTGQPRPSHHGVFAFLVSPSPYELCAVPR

Salmonella typhimurium [17] = assay: Effect on Salmonella Typhimurium mutation in presence of liver microsomal enzymes by Ames assay; assay type: functional, organism-based; settings: Salmonella enterica subsp. enterica serovar Typhimurium
[18] = target: Voltage-gated inwardly rectifying potassium channel KCNH2 (Homo sapiens, UniProt Q12809); assay: Inhibition of hERG; assay type: toxicity
Sequence of Voltage-gated inwardly rectifying potassium channel KCNH2 (Q12809 whole entry): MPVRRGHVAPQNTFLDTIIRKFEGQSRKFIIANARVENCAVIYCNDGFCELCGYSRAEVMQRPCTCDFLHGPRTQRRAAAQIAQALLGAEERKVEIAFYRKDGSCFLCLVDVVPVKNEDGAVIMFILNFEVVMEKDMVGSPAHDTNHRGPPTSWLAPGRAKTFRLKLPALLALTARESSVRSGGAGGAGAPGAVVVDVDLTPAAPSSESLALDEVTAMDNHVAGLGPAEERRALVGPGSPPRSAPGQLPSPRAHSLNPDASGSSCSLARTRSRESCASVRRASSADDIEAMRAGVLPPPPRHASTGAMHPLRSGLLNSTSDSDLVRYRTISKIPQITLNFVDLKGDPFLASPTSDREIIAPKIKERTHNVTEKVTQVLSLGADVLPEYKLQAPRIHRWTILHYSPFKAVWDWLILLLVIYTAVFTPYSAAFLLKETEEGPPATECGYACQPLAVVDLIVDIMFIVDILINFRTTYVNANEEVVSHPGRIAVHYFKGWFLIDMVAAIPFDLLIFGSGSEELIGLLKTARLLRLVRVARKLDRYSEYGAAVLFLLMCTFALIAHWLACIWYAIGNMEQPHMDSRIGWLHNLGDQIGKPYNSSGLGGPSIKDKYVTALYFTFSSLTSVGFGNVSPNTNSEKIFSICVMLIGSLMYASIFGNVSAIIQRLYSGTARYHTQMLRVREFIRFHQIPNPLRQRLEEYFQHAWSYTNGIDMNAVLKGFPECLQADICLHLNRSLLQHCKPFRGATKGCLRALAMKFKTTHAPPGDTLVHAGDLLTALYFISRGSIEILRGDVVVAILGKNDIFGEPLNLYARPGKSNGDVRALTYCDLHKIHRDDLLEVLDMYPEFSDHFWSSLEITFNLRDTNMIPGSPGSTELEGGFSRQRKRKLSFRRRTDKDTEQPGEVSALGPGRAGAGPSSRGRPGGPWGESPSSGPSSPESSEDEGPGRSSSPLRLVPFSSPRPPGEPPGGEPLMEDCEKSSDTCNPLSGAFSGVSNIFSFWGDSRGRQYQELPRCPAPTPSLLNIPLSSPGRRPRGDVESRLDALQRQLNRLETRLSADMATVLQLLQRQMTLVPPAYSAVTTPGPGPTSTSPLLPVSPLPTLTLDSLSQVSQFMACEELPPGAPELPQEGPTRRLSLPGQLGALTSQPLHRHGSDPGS

Escherichia coli [19] = assay: Effect on Escherichia coli mutation in presence of liver microsomal enzymes by Ames assay; assay type: functional, organism-based

With `COc1c(-c2ccccc2)nc2ccccc2c1C(=O)NN(C(C)=O)c1ccccc1` the IC50 (Neuromedin-K receptor [1]) was 210 nM (antagonist).
With `CCOC(=O)N(NC(=O)c1c(OC)c(-c2ccccc2)nc2ccccc12)c1ccccc1` the IC50 (Neuromedin-K receptor [1]) was 60 nM (antagonist).
With `COC(=O)N(NC(=O)c1c(OC)c(-c2ccccc2)nc2ccccc12)c1ccccc1F` the IC50 (Neuromedin-K receptor [1]) was 53 nM (antagonist).
For `COc1c(-c2ccccc2)nc2ccccc2c1C(=O)NNc1ccccc1`, the IC50 (Neuromedin-K receptor [1]) was 32 nM (antagonist).
With `COC(=O)N(NC(=O)c1c(OC)c(-c2ccccc2)nc2ccccc12)c1cccc(F)c1` the IC50 (Neuromedin-K receptor [1]) was 7.4 nM (antagonist) and the Emax (PXR (NR1I2)) was 54%.
In the case of `COC(=O)N(NC(=O)c1cc(-c2ccccc2)nc2ccccc12)c1ccccc1`, the IC50 (Neuromedin-K receptor [1]) is reported as 91 nM (antagonist) and the Emax (PXR (NR1I2)) is reported as 44%.
For `COC(=O)N(NC(=O)c1c(O)c(-c2ccccc2)nc2ccccc12)c1ccccc1`, the IC50 (Neuromedin-K receptor [1]) was 39 nM (antagonist).
In the case of `CCC(=O)N(NC(=O)c1c(OC)c(-c2ccccc2)nc2ccccc12)c1ccccc1`, the IC50 (Neuromedin-K receptor [1]) is reported as 22 nM (antagonist).
With `COC(=O)N(NC(=O)c1c(C)c(-c2ccccc2)nc2ccccc12)c1ccccc1` the IC50 (Neuromedin-K receptor [1]) was 8.4 nM (antagonist) and the Emax (PXR (NR1I2)) was 56%.
For `COC(=O)N(NC(=O)c1c(OC)c(-c2ccccc2F)nc2ccccc12)c1ccccc1`, the IC50 (Neuromedin-K receptor [1]) was 110 nM (antagonist).
For `COC(=O)N(NC(=O)c1c(OC)c(-c2ccccc2)nc2cc(F)ccc12)c1ccccc1`, the IC50 (Neuromedin-K receptor [1]) was 28 nM (antagonist) and the Emax (PXR (NR1I2)) was 62%.
With `COC(=O)N(NC(=O)c1c(OC)c(-c2cccc(F)c2)nc2ccccc12)c1ccccc1` the IC50 (Neuromedin-K receptor [1]) was 22 nM (antagonist) and the Emax (PXR (NR1I2)) was 69%.
For `COC(=O)N(NC(=O)c1c(OC)c(-c2ccccc2)nc2c(Br)cccc12)c1ccccc1`, the IC50 (Neuromedin-K receptor [1]) was 430 nM (antagonist) and the Emax (PXR (NR1I2)) was 88%.
For `COc1c(-c2ccccc2)nc2ccccc2c1C(=O)NN(C(=O)OCC(C)C)c1ccccc1`, the IC50 (Neuromedin-K receptor [1]) was 190 nM (antagonist).
With `COC(=O)N(NC(=O)c1c(OC)c(-c2ccccc2)nc2ccc(F)cc12)c1ccccc1` the IC50 (Neuromedin-K receptor [1]) was 38 nM (antagonist) and the Emax (PXR (NR1I2)) was 62%.
With `COC(=O)N(NC(=O)c1c(OC)c(-c2ccc(F)cc2)nc2ccccc12)c1ccccc1` the IC50 (Neuromedin-K receptor [1]) was 24 nM (antagonist) and the Emax (PXR (NR1I2)) was 54%.
For `COC(=O)N(NC(=O)c1c(OC)c(-c2ccccc2)nc2c(F)cccc12)c1ccccc1`, the IC50 (Neuromedin-K receptor [1]) was 4.1 nM (antagonist) and the Emax (PXR (NR1I2)) was 75%.
For `COC(=O)N(NC(=O)c1c(N)c(-c2ccccc2)nc2ccccc12)c1ccccc1`, the IC50 (Neuromedin-K receptor [1]) was 10 nM (antagonist) and the Emax (PXR (NR1I2)) was 64%.
In the case of `CCN(NC(=O)c1c(OC)c(-c2ccccc2)nc2ccccc12)c1ccccc1`, the IC50 (Neuromedin-K receptor [1]) is reported as 16 nM (antagonist).
Work on `CC[C@H](NC(=O)c1c(O)c(-c2ccccc2)nc2ccccc12)c1ccccc1` [TALNETANT] yielded an Emax (PXR (NR1I2)) of 62% and a concentration (Gerbil, jird [2]) of 3.8 µM.
`COC(=O)N(NC(=O)c1c(OC)c(-c2ccccc2)nc2c(C(F)(F)F)cccc12)c1ccccc1` showed an inhibition [3] of 27% and an Emax (PXR (NR1I2)) of 87%.
In the case of `COC(=O)N(NC(=O)c1c(OC)c(-c2ccccc2)nc2cccc(F)c12)c1ccccc1`, the IC50 (Neuromedin-K receptor [1]) is reported as 11 nM (antagonist) and the Emax (PXR (NR1I2)) is reported as 55%.
In the case of `COc1c(-c2ccccc2)nc2ccccc2c1C(=O)NN(C)c1ccccc1`, the IC50 (Neuromedin-K receptor [1]) is reported as 57 nM (antagonist).
Work on `COC(=O)N(NC(=O)c1c(OC)c(-c2ccccc2)nc2c(C#N)cccc12)c1ccccc1` yielded an inhibition [3] of 35% and an Emax (PXR (NR1I2)) of 87%.
With `COc1c(-c2ccccc2)nc2ccccc2c1C(=O)NN(c1ccccc1)c1ccccc1` the IC50 (Neuromedin-K receptor [1]) was 0.85 nM (antagonist), the remaining at 0.25 h [4] was 65% and the Emax (PXR (NR1I2)) was 68%. The concentration (Gerbil, jird [5]) was 40 nM.
With `COC(=O)N(NC(=O)c1c(OC)c(-c2ccccc2)nc2ccccc12)c1ccc(F)cc1` the IC50 (Neuromedin-K receptor [1]) was 33 nM (antagonist).
In the case of `COC(=O)N(NC(=O)c1c(OC)c(-c2ccccc2)nc2ccccc12)c1ccccc1`, the IC50 (Cytochrome P450 2C9) is reported as over 30 µM, the bioavailability [6] is reported as 43% and the Activity [7] is reported as “Dose-dependent effect”. It also gave a half-life [8] of 276 min, a bioavailability [9] of 36% and a half-life [10] of 180 min. For the same compound, the remaining at 0.25 h [4] was 21%, the Activity [11] was “inactive” and the IC50 (Substance-P receptor) was over 1000 nM. The IC50 (Cytochrome P450 3A4) was 12 µM, the Activity (Escherichia coli [12]) was “inactive” and the IC50 (Substance-K receptor) was over 1000 nM. The Emax (PXR (NR1I2)) was 49%, the Activity [13] was “inactive” and the Activity (Salmonella typhimurium [14]) was “inactive”. The IC50 (Neuromedin-K receptor [15]) was 66 nM (antagonist), the Activity (Hepatocyte) was “Active” and the concentration (Gerbil, jird [16]) was 950 nM. For the same compound, the IC50 (Cytochrome P450 2D6) was over 30 µM, the Activity (Salmonella typhimurium [17]) was “inactive” and the Ki [18] was over 8 µM. The Activity (Escherichia coli [19]) was “inactive”.
